Consider 51 molecules from ChEMBL document CHEMBL5346927, “Discovery of a novel 1H-pyrazole- [3,4-b] pyridine-based lysine demethylase 5B inhibitor with potential anti-prostate cancer activity that perturbs the phosphoinositide 3-kinase/AKT pathway” (Eur J Med Chem, 2023).

A value given as a limit tells only on which side of the number the result lay.

Experiment [1] deals with T1, Lysine-specific demethylase 5B (Homo sapiens, UniProt Q9UGL1). The experiment can be described thus: Inhibition of KDM5B (unknown origin).
The target of experiment [2] is T1, Lysine-specific demethylase 5B. Description: Inhibition of KDM5B (unknown origin) at 10 uM relative to control.
The test system of another experiment is LNCaP. The experiment can be described thus: Antiproliferative activity against human LNCaP cells assessed as inhibition of cell proliferation incubated for 72 hrs by MTT assay. The experiment is classed as functional, cell-based.
The subject of another experiment is DU-145. The experiment can be described thus: Antiproliferative activity against human DU-145 cells assessed as inhibition of cell proliferation incubated for 72 hrs by MTT assay. It is filed as functional, cell-based. The settings on record: DU-145, 72 h.
Another experiment relates to MGC-803. Description: Antitumor activity against human MGC-803 cells assessed as inhibition of cell proliferation incubated for 72 hrs by MTT assay. It is filed as functional, cell-based. To be noted: MGC-803, 72 h.
Another experiment relates to PC-3. The experiment can be described thus: Antitumor activity against human PC-3 cells assessed as inhibition of cell proliferation incubated for 72 hrs by MTT assay. The experiment is classed as functional, cell-based. To be noted: PC-3, 72 h.
Another experiment deals with MCF7. The experiment can be described thus: Antitumor activity against human MCF7 cells assessed as inhibition of cell proliferation incubated for 72 hrs by MTT assay. The experiment is classed as functional, cell-based. To be noted: MCF7, 72 h.
The next experiment deals with HepG2. Description: Antitumor activity against human HepG2 cells assessed as inhibition of cell proliferation incubated for 72 hrs by MTT assay. It is filed as functional, cell-based. To be noted: HepG2, 72 h.

T1 sequence (Q9UGL1 whole entry): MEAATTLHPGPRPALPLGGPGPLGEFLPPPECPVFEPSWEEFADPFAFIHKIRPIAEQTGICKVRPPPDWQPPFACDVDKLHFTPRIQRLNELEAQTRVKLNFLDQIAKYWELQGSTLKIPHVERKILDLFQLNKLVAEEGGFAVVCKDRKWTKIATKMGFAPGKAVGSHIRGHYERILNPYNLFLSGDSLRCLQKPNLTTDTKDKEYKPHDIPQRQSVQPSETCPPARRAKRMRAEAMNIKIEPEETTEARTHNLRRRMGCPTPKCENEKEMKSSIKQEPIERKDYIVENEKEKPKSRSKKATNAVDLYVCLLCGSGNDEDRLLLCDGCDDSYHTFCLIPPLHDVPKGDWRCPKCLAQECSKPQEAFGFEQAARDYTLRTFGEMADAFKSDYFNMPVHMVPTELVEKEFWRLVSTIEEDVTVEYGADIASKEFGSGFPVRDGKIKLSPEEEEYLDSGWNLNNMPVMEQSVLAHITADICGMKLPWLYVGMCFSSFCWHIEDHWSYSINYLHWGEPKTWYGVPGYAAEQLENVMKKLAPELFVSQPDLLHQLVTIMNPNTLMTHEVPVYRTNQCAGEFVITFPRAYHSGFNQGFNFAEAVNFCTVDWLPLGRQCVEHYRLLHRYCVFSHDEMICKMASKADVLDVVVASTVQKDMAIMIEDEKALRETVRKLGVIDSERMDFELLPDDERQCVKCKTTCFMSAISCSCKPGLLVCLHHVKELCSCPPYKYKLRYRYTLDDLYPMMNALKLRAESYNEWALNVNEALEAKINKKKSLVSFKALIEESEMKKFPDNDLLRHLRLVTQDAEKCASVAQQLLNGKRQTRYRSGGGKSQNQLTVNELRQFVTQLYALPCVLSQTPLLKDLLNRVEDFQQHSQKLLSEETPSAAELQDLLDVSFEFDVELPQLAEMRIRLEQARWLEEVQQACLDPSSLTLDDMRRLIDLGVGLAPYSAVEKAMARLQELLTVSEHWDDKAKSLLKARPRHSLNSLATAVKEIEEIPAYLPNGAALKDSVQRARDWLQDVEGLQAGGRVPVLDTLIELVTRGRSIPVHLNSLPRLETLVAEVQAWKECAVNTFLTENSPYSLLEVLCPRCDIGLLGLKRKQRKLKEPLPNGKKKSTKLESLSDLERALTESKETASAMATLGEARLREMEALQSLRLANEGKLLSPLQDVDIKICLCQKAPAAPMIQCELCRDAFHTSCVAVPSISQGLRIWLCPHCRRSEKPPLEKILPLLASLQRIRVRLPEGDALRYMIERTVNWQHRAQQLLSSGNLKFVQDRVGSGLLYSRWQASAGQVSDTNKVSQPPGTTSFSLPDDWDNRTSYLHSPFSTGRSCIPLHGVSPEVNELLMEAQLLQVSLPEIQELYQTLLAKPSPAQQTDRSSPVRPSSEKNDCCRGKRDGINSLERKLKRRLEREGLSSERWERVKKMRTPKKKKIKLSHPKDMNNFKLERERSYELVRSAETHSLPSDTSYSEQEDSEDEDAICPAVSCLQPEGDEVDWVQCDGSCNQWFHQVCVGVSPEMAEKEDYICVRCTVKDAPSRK

`CC(C)c1ccc(-n2ncc3c(C(=O)NCCN4CCN(C)CC4)cc(-c4ccc5ccccc5c4)nc32)cc1` yielded a concentration for half-maximal inhibition (IC50) in experiment [1] of 3.08 µM. The inhibition in experiment [2] was 86%.

Consider `Cc1ccc(-n2ncc3c(C(=O)NCc4cn(-c5ccccc5)nn4)cc(-c4ccc5ccccc5c4)nc32)cc1`, for which the IC50 in experiment [1] worked out at 2.17 µM. The inhibition in experiment [2] was determined as 74%.

`Cc1ccc(-n2ncc3c(C(=O)NCCN4CCN(C)CC4)cc(-c4ccc5ccccc5c4)nc32)cc1` gave a half-maximal inhibitory concentration (IC50) in experiment [1] of 1.35 µM. Also, the inhibition in experiment [2] amounted to 79%.

For the molecule `CC(C)c1ccc(-n2ncc3c(C(=O)NCCN4CCN(C)CC4)cc(-c4ccccc4)nc32)cc1`, half-maximal inhibition in experiment [1] (IC50) was put at 3.99 µM. For the same molecule, the inhibition in experiment [2] is 83%.

On to `Cc1ccc(-n2ncc3c(C(=O)NC4CCCC4)cc(-c4ccc5ccccc5c4)nc32)cc1`, for which the IC50 in experiment [1] is over 10 µM. In addition, in experiment [2], the inhibition is 5%.

In experiment [1], `CN1CCN(CCNC(=O)c2cc(-c3ccccc3)nc3c2cnn3-c2ccc(Cl)cc2)CC1` came in with an IC50 of over 10 µM. Besides, in experiment [2], the inhibition stood at 40%.

The molecule `C#CNC(=O)c1cc(-c2ccc3ccccc3c2)nc2c1cnn2-c1ccc(C)cc1` registered a half-maximal inhibitory concentration (IC50) in experiment [1] of over 10 µM. Besides, in experiment [2], the inhibition came out at 28%.

With `CN1CCN(CCNC(=O)c2cc(-c3ccccc3)nc3c2cnn3-c2ccccc2)CC1`, in experiment [1], half-maximal inhibition (IC50) required 0.749 µM. The inhibition in experiment [2] is 93%.

`Cc1ccc(-n2ncc3c(C(=O)NCCN4CCN(C)CC4)cc(-c4ccccc4)nc32)cc1C` gave an IC50 in experiment [1] of 3.69 µM. Besides, the inhibition in experiment [2] was 79%.

`Cc1ccccc1-c1cc(C(=O)NCCN2CCN(C)CC2)c2cnn(-c3ccccc3)c2n1`: the midpoint of inhibition in experiment [1], the IC50, lay at 6.15 µM. Besides, in experiment [2], the inhibition worked out at 60%.

`Cc1ccc(-n2ncc3c(C(=O)Nc4ccccc4)cc(-c4ccc5ccccc5c4)nc32)cc1` came in with a half-maximal inhibitory concentration (IC50) in experiment [1] of over 10 µM. Further, the inhibition in experiment [2] is -1%.

Molecule `CCc1ccc(-c2cc(C(=O)NCCN3CCN(C)CC3)c3cnn(-c4ccccc4)c3n2)cc1` had a half-inhibitory concentration (IC50) in experiment [1] of 0.376 µM. The inhibition in experiment [2] turned out to be 83%.

In turn, `Cc1ccc(-n2ncc3c(C(=O)NCc4cn(-c5ccc(C)cc5C)nn4)cc(-c4ccc5ccccc5c4)nc32)cc1` yielded a concentration for half-maximal inhibition (IC50) in experiment [1] of over 10 µM. Also, the inhibition in experiment [2] is 17%.

Regarding `Cc1ccc(-n2ncc3c(C(=O)NCCN4CCN(C)CC4)cc(-c4ccc5ccccc5c4)nc32)cc1C`, in experiment [1], the midpoint of inhibition, the IC50, lay at 1.94 µM. Besides, the inhibition in experiment [2] is 89%.

For the molecule `CN1CCN(CCNC(=O)c2cc(-c3ccccc3)nc3c2cnn3-c2ccccc2Cl)CC1`, in experiment [1], the 50% inhibitory concentration (IC50) was over 10 µM. For the same molecule, the inhibition in experiment [2] was found to be 21%.

As for `Cc1cc(C)cc(-c2cc(C(=O)NCCN3CCN(C)CC3)c3cnn(-c4ccc5ccccc5c4)c3n2)c1`, in experiment [1], the 50% inhibitory concentration (IC50) was over 10 µM. Besides, the inhibition in experiment [2] is 35%.

Take `O=C(NCc1cn(Cc2ccccc2)nn1)c1cc(-c2ccc3ccccc3c2)nc2c1cnn2-c1ccc(C(F)(F)F)cc1`: the half-inhibitory concentration (IC50) in experiment [1] worked out at 6.27 µM. Also, the inhibition in experiment [2] turned out to be 63%.

Consider `O=c1[nH]cc(F)c(=O)[nH]1` [FLUOROURACIL], for which the IC50 in the experiment with LNCaP stood at 7.93 µM; with DU-145, 8.58 µM; in the experiment with MGC-803 it was 10.1 µM; with PC-3 it was 8.41 µM; in the experiment on MCF7 it was 15.1 µM.

As for `Cc1ccc(-n2ncc3c(C(=O)NCc4cn(-c5ccc(F)cc5)nn4)cc(-c4ccc5ccccc5c4)nc32)cc1`, the IC50 in experiment [1] was over 10 µM. Besides, the inhibition in experiment [2] turned out to be 23%.

`Cc1ccc(-n2ncc3c(C(=O)NCCN4CCCCC4)cc(-c4ccc5ccccc5c4)nc32)cc1` registered a half-maximal inhibitory concentration (IC50) in experiment [1] of over 10 µM. In experiment [2], the inhibition was 40%.

`CN1CCN(CCNC(=O)c2cc(-c3ccc(Cl)cc3)nc3c2cnn3-c2ccccc2)CC1` came in with a half-maximal inhibitory concentration (IC50) in experiment [1] of over 10 µM. The inhibition in experiment [2] is 43%.

For the molecule `Cc1ccc(-n2ncc3c(C(=O)NCc4cn(Cc5ccc(C(F)(F)F)cc5)nn4)cc(-c4ccc5ccccc5c4)nc32)cc1`, in experiment [1], the half-inhibitory concentration (IC50) came to 6.97 µM. In experiment [2], the inhibition came to 58%.

Consider `O=C(O)CCNc1cc(N2CCc3ccccc3CC2)nc(-c2ccccn2)n1`, for which the IC50 came out at 39.8 µM with HepG2, 29.3 µM with MGC-803, 20.3 µM with PC-3 and 33.7 µM with MCF7.

`Cc1ccc(-n2ncc3c(C(=O)NCc4cn(-c5cccc(F)c5)nn4)cc(-c4ccc5ccccc5c4)nc32)cc1` returned a half-maximal inhibitory concentration (IC50) in experiment [1] of 5.26 µM. Further, the inhibition in experiment [2] worked out at 71%.

In experiment [1], `Cc1ccccc1-n1ncc2c(C(=O)NCCN3CCN(C)CC3)cc(-c3ccccc3)nc21` registered a 50% inhibitory concentration (IC50) of 4.17 µM. Further, the inhibition in experiment [2] amounted to 83%.

Turning to `Cc1cccc(-n2ncc3c(C(=O)NCCN4CCN(C)CC4)cc(-c4ccccc4)nc32)c1`, the IC50 in experiment [1] was over 10 µM. In addition, in experiment [2], the inhibition came to 14%.

Consider `Cc1ccc(-n2ncc3c(C(=O)NCc4cn(-c5ccc(I)cc5)nn4)cc(-c4ccc5ccccc5c4)nc32)cc1`, for which the IC50 in experiment [1] worked out at 6.58 µM. Moreover, the inhibition in experiment [2] came out at 58%.

In experiment [1], `Cc1ccccc1-n1ncc2c(C(=O)NCCN3CCN(C)CC3)cc(-c3ccc4ccccc4c3)nc21` gave a concentration for half-maximal inhibition (IC50) of 3.34 µM. Besides, the inhibition in experiment [2] is 86%.

Take `Cc1ccc(-n2ncc3c(C(=O)NCCN(C)C)cc(-c4ccc5ccccc5c4)nc32)cc1`: in experiment [1], the IC50 stood at 5.42 µM. In addition, the inhibition in experiment [2] was determined as 64%.

Turning to `Cc1ccc(-n2ncc3c(C(=O)NCc4cn(-c5ccc(C)c(C)c5)nn4)cc(-c4ccc5ccccc5c4)nc32)cc1`, the midpoint of inhibition in experiment [1], the IC50, lay at 9.37 µM. Besides, in experiment [2], the inhibition was determined as 51%.

As to `Cc1ccc(-c2cc(C(=O)NCCN3CCN(C)CC3)c3cnn(-c4ccccc4)c3n2)cc1`, in experiment [1], half-maximal inhibition (IC50) was put at 0.658 µM. For the same molecule, the inhibition in experiment [2] stood at 79%.

`CC(C)n1ncc2c(C(=O)NCc3cn(Cc4ccccc4)nn3)cc(-c3ccc4ccccc4c3)nc21` registered an IC50 in experiment [1] of 7.7 µM. The inhibition in experiment [2] came out at 57%.

Take `Cc1ccc(-n2ncc3c(C(=O)Nc4cccnc4)cc(-c4ccc5ccccc5c4)nc32)cc1`: the IC50 in experiment [1] was over 10 µM. Moreover, the inhibition in experiment [2] was -3%.

As to `CN1CCN(CCNC(=O)c2cc(-c3ccccc3)nc3c2cnn3-c2ccc(Br)cc2)CC1`, in experiment [1], the IC50 is over 10 µM. The inhibition in experiment [2] was determined as 44%.

`O=C(O)CNC(=O)C(=O)O` [N-OXALYLGLYCINE] registered an IC50 in experiment [1] of 920 µM.

In turn, `Cc1ccc(-n2ncc3c(C(=O)NCc4cn(Cc5ccccc5)nn4)cc(-c4ccc5ccccc5c4)nc32)cc1` returned a concentration for half-maximal inhibition (IC50) in experiment [1] of 3.93 µM. Also, the inhibition in experiment [2] amounted to 72%.

With `CN1CCN(CCNC(=O)c2cc(-c3ccccc3)nc3c2cnn3-c2cccc(Cl)c2)CC1`, in experiment [1], the IC50 is over 10 µM. The inhibition in experiment [2] amounted to 6%.

As for `Cc1cccc(-c2cc(C(=O)NCCN3CCN(C)CC3)c3cnn(-c4ccccc4)c3n2)c1`, the midpoint of inhibition in experiment [1], the IC50, lay at 2.81 µM. For the same molecule, in experiment [2], the inhibition turned out to be 67%.

In the case of `CN1CCN(CCNC(=O)c2cc(-c3ccc(Br)cc3)nc3c2cnn3-c2ccccc2)CC1`, the IC50 in experiment [1] is over 10 µM. For the same molecule, the inhibition in experiment [2] turned out to be 31%.

Take `Cc1ccc(-n2ncc3c(C(=O)NCc4ccccc4)cc(-c4ccc5ccccc5c4)nc32)cc1`: in experiment [1], the IC50 is over 10 µM. Moreover, the inhibition in experiment [2] came to 27%.

Take `CN1CCN(CCNC(=O)c2cc(-c3ccccc3)nc3c2cnn3-c2ccc(C(F)(F)F)cc2)CC1`: the half-maximal inhibitory concentration (IC50) in experiment [1] was over 10 µM. In addition, in experiment [2], the inhibition was 20%.

With `Cc1ccc(-n2ncc3c(C(=O)NCCN4CCN(C)CC4)cc(-c4ccccc4)nc32)cc1`, in experiment [1], the half-maximal inhibitory concentration (IC50) was 1.67 µM. Moreover, the inhibition in experiment [2] stood at 95%.

On to `Cc1ccc(-n2ncc3c(C(=O)NCc4cn(-c5cccc(Br)c5)nn4)cc(-c4ccc5ccccc5c4)nc32)cc1`, for which the IC50 in experiment [1] was determined as 9.45 µM. The inhibition in experiment [2] worked out at 51%.

With `CN1CCN(CCNC(=O)c2cc(-c3ccc4ccccc4c3)nc3c2cnn3-c2ccc(Br)cc2)CC1`, in experiment [1], the IC50 was over 10 µM. For the same molecule, the inhibition in experiment [2] worked out at 46%.

`Cc1ccc(-n2ncc3c(C(=O)NCCN4CCCC4)cc(-c4ccc5ccccc5c4)nc32)cc1` displayed an IC50 in experiment [1] of 7.35 µM. In addition, the inhibition in experiment [2] is 58%.

Molecule `CN1CCN(CCNC(=O)c2cc(-c3ccc4ccccc4c3)nc3c2cnn3-c2ccc(C(F)(F)F)cc2)CC1` gave an IC50 in experiment [1] of over 10 µM. Besides, the inhibition in experiment [2] was 33%.

For `CC(C)c1ccc(-c2cc(C(=O)NCCN3CCN(C)CC3)c3cnn(-c4ccccc4)c3n2)cc1`, in experiment [1], the half-maximal inhibitory concentration (IC50) turned out to be 0.132 µM. In experiment [2], the inhibition was 87%.

`Cc1ccc(-n2ncc3c(C(=O)NCc4cn(Cc5ccc(C#N)cc5)nn4)cc(-c4ccc5ccccc5c4)nc32)cc1`: in experiment [1], the half-inhibitory concentration (IC50) is 6.38 µM. For the same molecule, in experiment [2], the inhibition was determined as 63%.

In experiment [1], `Cc1cc(C)cc(-n2ncc3c(C(=O)NCCN4CCN(C)CC4)cc(-c4ccccc4)nc32)c1` had an IC50 of over 10 µM. Further, the inhibition in experiment [2] came to 20%.

In the case of `COc1ccc(-c2cc(C(=O)NCCN3CCN(C)CC3)c3cnn(-c4ccccc4)c3n2)cc1`, in experiment [1], it took 0.237 µM to reach half-maximal inhibition (IC50). Also, the inhibition in experiment [2] was 88%.

In experiment [1], `Cc1cccc(-n2ncc3c(C(=O)NCCN4CCN(C)CC4)cc(-c4ccc5ccccc5c4)nc32)c1` returned a 50% inhibitory concentration (IC50) of 9.43 µM. The inhibition in experiment [2] is 53%.
